According to patent US9388162B2, “Substituted morphinans and the use thereof” (Purdue Pharma L.P., priority 2012, dated 2016):

Experiments:
κ opioid receptor = κ opioid receptor (Homo sapiens (Human), UniProt P41145); assay: κ-opioid receptor [35S]GTPγS functional assay, U-2 OS cells; type: biochemical; details: κ GTP; for EC50: read-out: Activity Response κ EC50 (nM) [mean ± SEM]; for Emax: relative to U69,593, read-out: Activity Response κ Emax (%)
Description: Membranes from HEK-293 cells, CHO or U-2 OS cells expressing the recombinant human kappa opioid receptor (κ) were prepared by lysing cells in ice cold hypotonic buffer (2.5 mM MgCl2, 50 mM HEPES, pH 7.4) (10 mL/10 cm dish) followed by homogenization with a tissue grinder/Teflon pestle. Membranes were collected by centrifugation at 30,000×g for 15 min at 4° C. and pellets were resuspended in hypotonic buffer to a final concentration of 1-3 mg/mL. Protein concentrations were determined using the BioRad protein assay reagent with bovine serum albumen as standard. Aliquots of κ receptor membranes were stored at −80° C.
Functional [^35S]GTPγS binding assays were conducted as follows. κ opioid receptor membrane solution was prepared by sequentially adding final concentrations of 0.026 μg/μl κ membrane protein (in-house), 10 μg/mL saponin, 3 μM GDP and 0.20 nM [^35S]GTPγS to binding buffer (100 mM NaCl, 10 mM MgCl2, 20 mM HEPES, pH 7.4) on ice. The prepared membrane solution (190 μl/well) was transferred to 96-shallow well polypropylene plates containing 10 μl of 20× concentrated stock solutions of agonist prepared in DMSO. Plates were incubated for 30 min at a temperature of about 25° C. with shaking. Reactions were terminated by rapid filtration onto 96-well Unifilter GF/B filter plates (Perkin Elmer, Shelton, Conn.) using a 96-well tissue harvester (Packard) and followed by three filtration washes with 200 μl ice-cold binding buffer (10 mM NaH2PO4, 10 mM Na2HPO4, pH 7.4). Filter plates were subsequently dried at 50° C. for 2-3 hours. Fifty μl/well scintillation cocktail (Perkin Elmer, Shelton, Conn.) was added and plates were counted in a Packard Top-Count for 1 min/well.
κ GTP EC50 is the concentration of a compound providing 50% of the maximal response for the compound at a κ receptor.
κ GTP Emax (%) is the maximal effect elicited by a compound relative to the effect elicited by U69,593.
In TABLE 3, binding affinity of certain Compounds of the Invention to the μ- and κ-opioid receptors was determined as described above. In TABLE 4, activity response of certain Compounds of the Invention to the μ- and κ-opioid receptors was determined as described above for functional assays using HEK-293 cells. In TABLE 5, activity response of certain Compounds of the Invention to the μ- and κ-opioid receptors was determined as described above using U-2 OS cells.

μ-opioid receptors = μ-opioid receptors (Homo sapiens (Human), UniProt P35372); assay: μ-opioid receptor [35S]GTPγS functional assay, U-2 OS cells; type: biochemical; details: μ GTP; for EC50: read-out: Activity Response μ EC50 (nM) [mean ± SEM]; for Emax: relative to DAMGO, read-out: Activity Response μ Emax (%)
Description: [^35S]GTPγS functional assays were conducted using freshly thawed μ-receptor membranes prepared from a cell line expressing recombinant μ opioid receptor in a HEK-293, CHO or U-2 OS cell background or purchased from a commercial source (Perkin Elmer, Shelton, Conn.; or DiscovRx, Fremont, Calif.). Assay reactions were prepared by sequentially adding the following reagents to binding buffer (100 mM NaCl, 10 mM MgCl2, 20 mM HEPES, pH 7.4) on ice (final concentrations indicated): membrane protein (0.026 mg/mL), saponin ([…]), GDP ([…]) and [^35S]GTPγS (0.20 nM; Perkin Elmer, Shelton, Conn.). The prepared membrane solution (190 μl/well) was transferred to 96-shallow well polypropylene plates containing 10 μl of 20× concentrated stock solutions of the agonist [D-Ala^2, N-methyl-Phe^4 Gly-ol^5]-enkephalin (DAMGO) prepared in dimethyl sulfoxide (DMSO). Plates were incubated for 30 min at about 25° C. with shaking. Reactions were terminated by rapid filtration onto 96-well Unifilter GF/B filter plates (Perkin Elmer, Shelton, Conn.) using a 96-well tissue harvester (Perkin Elmer, Shelton, Conn.) followed by three filtration washes with 200 μl of ice-cold wash buffer (10 mM NaH2PO4, 10 mM Na2HPO4, pH 7.4). Filter plates were subsequently dried at 50° C. for 2-3 hours. BetaScint scintillation cocktail (Perkin Elmer, Shelton, Conn.) was added (50 μl/well) and plates were counted using a Packard Top-Count for 1 min/well. Data were analyzed using the sigmoidal dose-response curve fitting functions in GraphPad PRISM v. 3.0, or an in-house function for non-linear, sigmoidal dose-response curve-fitting.
μ GTP EC50 is the concentration of a compound providing 50% of the maximal response for the compound at a μ-opioid receptor.
μ GTP Emax (%) is the maximal effect elicited by a compound relative to the effect elicited by DAMGO, a standard μ agonist. Generally, the μ GTP Emax (%) value measures the efficacy of a compound to treat or prevent pain or other Conditions.
The following tables provide results on the efficacy of binding and activity response of exemplified Compounds of the Invention at the μ- and κ-opioid receptors. In TABLE 3, binding affinity of certain Compounds of the Invention to the μ- and κ-opioid receptors was determined as described above. In TABLE 4, activity response of certain Compounds of the Invention to the μ- and κ-opioid receptors was determined as described above for functional assays using HEK-293 cells. In TABLE 5, activity response of certain Compounds of the Invention to the μ- and κ-opioid receptors was determined as described above using U-2 OS cells.

In the case of `CC[C@H](C)C(=O)N[C@H]1C[C@@]2(O)[C@H]3Cc4ccc(O)cc4[C@@]2(CCN3CC2CC2)CC1=O` [Compound 37, (S)-N-((4bR,7S,8aS,9R)-11-(cyclopropylmethyl)-3,8a-dihydroxy-6-oxo-6,7,8,8a,9,10-hexahydro-5H-9,4b-(epiminoethano)phenanthren-7-yl)-2-methylbutanamide], the EC50 (κ opioid receptor) is reported as 42.1 ± 7.56 nM, the Emax (κ opioid receptor) is reported as 71.3 ± 5.7% and the EC50 (μ-opioid receptors) is reported as > 200000 nM. It also gave an Emax (μ-opioid receptors) of 6 ± 1.53%.

For `O=C(N[C@H]1C[C@@]2(O)[C@H]3Cc4ccc(O)cc4[C@@]2(CCN3CC2CC2)CC1=O)C1CCCCC1` [Compound 38, N-((4bR,7S,8aS,9R)-11-(cyclopropylmethyl)-3,8a-dihydroxy-6-oxo-6,7,8,8a,9,10-hexahydro-5H-9,4b-(epiminoethano)phenanthren-7-yl)cyclohexanecarboxamide], the EC50 (κ opioid receptor) was 2.3 ± 0.25 nM, the Emax (κ opioid receptor) was 95.3 ± 5.21% and the EC50 (μ-opioid receptors) was 10.3 ± 1.72 nM. For the same molecule, the Emax (μ-opioid receptors) was 40.3 ± 1.45%.

Molecule `COc1ccc2c(c1)[C@]13CCN(C)[C@H](C2)[C@]1(O)C[C@H](CCOCc1ccccc1)C(=O)C3` [Compound 50, (4bR,7S,8aS,9R)-7-(2-(benzyloxy)ethyl)-8a-hydroxy-3-methoxy-11-methyl-8,8a,9,10-tetrahydro-5H-9,4b-(epiminoethano)phenanthren-6(7H)-one] has an EC50 (κ opioid receptor) of 7900 ± 707 nM, an Emax (κ opioid receptor) of 74 ± 5.29% and an EC50 (μ-opioid receptors) of 148 ± 10.4 nM. It also gave an Emax (μ-opioid receptors) of 102 ± 1.67%.

`O=C1C[C@]23CCN(CC4CC4)[C@H](Cc4ccc(OCc5ccccc5)cc42)[C@]3(O)C[C@@H]1CCO` [Compound 58, (4bR,7S,8aS,9R)-3-(benzyloxy)-11-(cyclopropylmethyl)-8a-hydroxy-7-(2-hydroxyethyl)-8,8a,9,10-tetrahydro-5H-9,4b-(epiminoethano)phenanthren-6(7H)-one] was tested, and the EC50 (κ opioid receptor) was 839 ± 9.9 nM, the Emax (κ opioid receptor) was 96 ± 6.35% and the EC50 (μ-opioid receptors) was 787 ± 242 nM. It also gave an Emax (μ-opioid receptors) of 43.7 ± 3.93%.

For `CCOC(=O)C[C@H]1C[C@@]2(O)[C@H]3Cc4ccc(OC)cc4[C@@]2(CCN3C)CC1=O` [Compound 59, ethyl 2-((4bR,7R,8aS,9R)-8a-hydroxy-3-methoxy-11-methyl-6-oxo-6,7,8,8a,9,10-hexahydro-5H-9,4b-(epiminoethano)phenanthren-7-yl)acetate], the EC50 (κ opioid receptor) was > 200000 nM, the Emax (κ opioid receptor) was 59 ± 1.53% and the EC50 (μ-opioid receptors) was 11500 ± 903 nM. The Emax (μ-opioid receptors) was 100 ± 4.62%.

With `CN1CC[C@]23CC(=O)[C@@H](CC(=O)O)C[C@@]2(O)[C@H]1Cc1ccc(O)cc13` [Compound 61, 2-((4bR,7R,8aS,9R)-3,8a-dihydroxy-11-methyl-6-oxo-6,7,8,8a,9,10-hexahydro-5H-9,4b-(epiminoethano)phenanthren-7-yl)acetic acid] the EC50 (κ opioid receptor) was 963 ± 83 nM, the Emax (κ opioid receptor) was 90 ± 10% and the EC50 (μ-opioid receptors) was 466 ± 81 nM. It also gave an Emax (μ-opioid receptors) of 77.3 ± 2.03%.

For `COc1ccc2c(c1)[C@]13CCN(CC4CC4)[C@H](C2)[C@]1(O)C/C(=C\CC(C)C)C(=O)C3` [Compound 62, (4bR,8aS,9R,E)-11-(cyclopropylmethyl)-8a-hydroxy-3-methoxy-7-(3-methylbutylidene)-8,8a,9,10-tetrahydro-5H-9,4b-(epiminoethano)phenanthren-6(7H)-one], the EC50 (κ opioid receptor) was 3070 ± 233 nM, the Emax (κ opioid receptor) was 62.7 ± 4.37% and the EC50 (μ-opioid receptors) was > 200000 nM. The Emax (μ-opioid receptors) was 27.5%.

For `O=C1C[C@]23CCN(CC4CC4)[C@H](Cc4ccc(O)cc42)[C@]3(O)C[C@@H]1CC1CCCC1` [Compound 65, (4bR,7S,8aS,9R)-7-(cyclopentylmethyl)-11-(cyclopropylmethyl)-3,8a-dihydroxy-8,8a,9,10-tetrahydro-5H-9,4b-(epiminoethano)phenanthren-6(7H)-one], the EC50 (κ opioid receptor) was 2.57 ± 0.24 nM, the Emax (κ opioid receptor) was 101 ± 5.51% and the EC50 (μ-opioid receptors) was > 200000 nM. For the same molecule, the Emax (μ-opioid receptors) was 4%.

`CCC(C)C[C@H]1C[C@@]2(O)[C@H]3Cc4ccc(O)cc4[C@@]2(CCN3CC2CC2)CC1=O` (stereo partly drawn) [Compound 66, (4bR,7S,8aS,9R)-11-(cyclopropylmethyl)-3,8a-dihydroxy-7-(2-methylbutyl)-8,8a,9,10-tetrahydro-5H-9,4b-(epiminoethano)phenanthren-6(7H)-one] was tested, and the EC50 (κ opioid receptor) was 7.57 ± 1.14 nM, the Emax (κ opioid receptor) was 102 ± 1.33% and the EC50 (μ-opioid receptors) was > 200000 nM. The Emax (μ-opioid receptors) was 2.5%.

In the case of `CCCC[C@H]1C[C@@]2(O)[C@H]3Cc4ccc(O)cc4[C@@]2(CCN3CC2CC2)CC1=O` [Compound 67, (4bR,7S,8aS,9R)-7-butyl-11-(cyclopropylmethyl)-3,8a-dihydroxy-8,8a,9,10-tetrahydro-5H-9,4b-(epiminoethano)phenanthren-6(7H)-one], the EC50 (κ opioid receptor) is reported as 3 ± 0.12 nM, the Emax (κ opioid receptor) is reported as 101 ± 1.73% and the EC50 (μ-opioid receptors) is reported as > 200000 nM. For the same molecule, the Emax (μ-opioid receptors) was 2%.

For `CC(C)(C)C[C@H]1C[C@@]2(O)[C@H]3Cc4ccc(O)cc4[C@@]2(CCN3CC2CC2)CC1=O` [Compound 68, (4bR,7S,8aS,9R)-11-(cyclopropylmethyl)-3,8a-dihydroxy-7-neopentyl-8,8a,9,10-tetrahydro-5H-9,4b-(epiminoethano)phenanthren-6(7H)-one], the EC50 (κ opioid receptor) was 20.5 ± 0.4 nM, the Emax (κ opioid receptor) was 69 ± 3.21% and the EC50 (μ-opioid receptors) was > 200000 nM. It also gave an Emax (μ-opioid receptors) of 3%.

For `CC(C)C[C@H]1C[C@@]2(O)[C@H]3Cc4ccc(O)cc4[C@@]2(CCN3CC2CC2)CC1=O` [Compound 69, (4bR,7S,8aS,9R)-11-(cyclopropylmethyl)-3,8a-dihydroxy-7-isobutyl-8,8a,9,10-tetrahydro-5H-9,4b-(epiminoethano)phenanthren-6(7H)-one], the EC50 (κ opioid receptor) was 9.52 ± 1.41 nM, the Emax (κ opioid receptor) was 95.2 ± 1.89% and the EC50 (μ-opioid receptors) was > 200000 nM. The Emax (μ-opioid receptors) was 2%.

With `O=C1C[C@]23CCN(CC4CC4)[C@H](Cc4ccc(O)cc42)[C@]3(O)C[C@@H]1CC1CCCCC1` [Compound 70, (4bR,7S,8aS,9R)-7-(cyclohexylmethyl)-11-(cyclopropylmethyl)-3,8a-dihydroxy-8,8a,9,10-tetrahydro-5H-9,4b-(epiminoethano)phenanthren-6(7H)-one] the EC50 (κ opioid receptor) was 4.01 ± 0.47 nM, the Emax (κ opioid receptor) was 106 ± 3.8% and the EC50 (μ-opioid receptors) was > 200000 nM. It also gave an Emax (μ-opioid receptors) of 3.5%.

`O=C1C[C@]23CCN(CC4CC4)[C@H](Cc4ccc(O)cc42)[C@]3(O)C[C@@H]1Cc1ccccc1` [Compound 71, (4bR,7S,8aS,9R)-7-benzyl-11-(cyclopropylmethyl)-3,8a-dihydroxy-8,8a,9,10-tetrahydro-5H-9,4b-(epiminoethano)phenanthren-6(7H)-one] was tested, and the EC50 (κ opioid receptor) was 5.6 ± 0.72 nM, the Emax (κ opioid receptor) was 109 ± 5.45% and the EC50 (μ-opioid receptors) was 6.76 ± 1.73 nM. For the same molecule, the Emax (μ-opioid receptors) was 17.7 ± 0.88%.

Molecule `C[C@H](NC(=O)C[C@H]1C[C@@]2(O)[C@H]3Cc4ccc(O)cc4[C@@]2(CCN3C)CC1=O)C(=O)O` [Compound 75, (2-((4bR,7R,8aS,9R)-3,8a-dihydroxy-11-methyl-6-oxo-6,7,8,8a,9,10-hexahydro-5H-9,4b-(epiminoethano)phenanthren-7-yl)acetyl)-L-alanine] has an EC50 (κ opioid receptor) of 16600 ± 1190 nM, an Emax (κ opioid receptor) of 66.7 ± 1.2% and an EC50 (μ-opioid receptors) of 1150 ± 103 nM. It also gave an Emax (μ-opioid receptors) of 95 ± 1.53%.
